Assay results taken from PMC5951806, “Rapid labelling and covalent inhibition of intracellular native proteins using ligand-directed N-acyl-N-alkyl sulfonamide” (Nature Communications, 2018).

Legend:
SKBR3 cells = experiment: Cell viability assay (WST-8)
Hsp90 = conditions: read-out: reported IC50; cited from earlier work
intracellular Hsp90 = conditions: SKBR3 cells, pre-treated 1–10 µM for 3 h, washed, then 11 0.5 µM
[1] = test system: Hsp90-client proteins HER2, cRaf, Akt and pAkt; experiment: Western blotting of Hsp90 client proteins

## CC(C)NCCCn1c(Sc2cc3c(cc2I)OCO3)nc2c(N)ncnc21 [PU-H71]
SKBR3 cells; SKBR3, 3 h treatment, washing, further 69 h
  cytotoxicity / growth inhibitory effect after washout: almost abolished the cytotoxicity
SKBR3 cells; SKBR3, long-term incubation for 72 h
  cytotoxicity: remarkable cytotoxicity
Hsp90
  IC50: […]
Intracellular Hsp90
  blocking of fluorescent labelling of Hsp90 by 11 after washout: failed to block the labelling reaction
[1]; SKBR3, 1 μM, 24 h without washing
  western blotting bands of Hsp90-client proteins relative to vehicle: dramatically decreased
[1]; SKBR3, 3 h treatment, washing, further 21 h
  Hsp90-client protein levels after washout: did not significantly affect the band intensities
